# Where two headings read alike, the source gives them in different places.
# Legend:
# [1] = test system: BRCA wild-type DLD-1 cells; assay: Anti-proliferative activity against cells (CCK8): DLD-1; type: cell-based; conditions: Homo sapiens, 72 h + 96 h culture
# Experimental: BRCA wild-type DLD-1 cells were cultured in an RPMI-1640 medium containing 10% fetal bovine serum, 100 U/mL penicillin, and 100 µg/mL streptomycin, and incubated in an incubator with 5% saturated CO2 at 37 °C. When the cells grew to 80% confluence, they were collected, centrifuged at 300 g for 10 min, and then plated onto a 96-well plate at 1000 cells/well. After 24 h, different final concentrations (0 µM, 1 µM, and 10 µM) of PARPi were added, and the cells were cultured for another 72 h. The cells were subjected to medium exchange treatment (re-supplemented with PARPi at the same final concentrations) and then cultured for another 96 h. The 96-well plate was taken out.
# [2] = Cerebrospinal fluid and plasma distribution in vivo; conditions: rat, male rats, intravenous 5 mg/kg, n = 1
# Experimental: Experimental procedures: The compound was weighed out, a small amount of DMSO was added, and then a sodium chloride solution for injection was added to prepare a 5 mg·mL^-1 compound solution for later administration. […] 10 µL of the plasma and 10 µL of the cerebrospinal fluid were each added to a centrifuge tube, and 40 µL of acetonitrile containing 20 ng·mL^-1 internal standard SAHA was added for precipitation. […] The supernatant was collected and transferred to a sample vial for later analysis. Range of standard curve: 1-1000 ng·mL^-1.
# PARP1 = target: T1, PARP1 (Homo sapiens, UniProt P09874); assay: PARP1 enzyme assay (histone-coated plate, chemiluminescence); type: biochemical; conditions: PARP1 0.02 nM, DNA 0.8 nM, NAD+ 3.5 µM; read-out: PARP-1 IC50
# T1 construct: purchased BPS 80501
# T1 sequence (P09874 whole entry): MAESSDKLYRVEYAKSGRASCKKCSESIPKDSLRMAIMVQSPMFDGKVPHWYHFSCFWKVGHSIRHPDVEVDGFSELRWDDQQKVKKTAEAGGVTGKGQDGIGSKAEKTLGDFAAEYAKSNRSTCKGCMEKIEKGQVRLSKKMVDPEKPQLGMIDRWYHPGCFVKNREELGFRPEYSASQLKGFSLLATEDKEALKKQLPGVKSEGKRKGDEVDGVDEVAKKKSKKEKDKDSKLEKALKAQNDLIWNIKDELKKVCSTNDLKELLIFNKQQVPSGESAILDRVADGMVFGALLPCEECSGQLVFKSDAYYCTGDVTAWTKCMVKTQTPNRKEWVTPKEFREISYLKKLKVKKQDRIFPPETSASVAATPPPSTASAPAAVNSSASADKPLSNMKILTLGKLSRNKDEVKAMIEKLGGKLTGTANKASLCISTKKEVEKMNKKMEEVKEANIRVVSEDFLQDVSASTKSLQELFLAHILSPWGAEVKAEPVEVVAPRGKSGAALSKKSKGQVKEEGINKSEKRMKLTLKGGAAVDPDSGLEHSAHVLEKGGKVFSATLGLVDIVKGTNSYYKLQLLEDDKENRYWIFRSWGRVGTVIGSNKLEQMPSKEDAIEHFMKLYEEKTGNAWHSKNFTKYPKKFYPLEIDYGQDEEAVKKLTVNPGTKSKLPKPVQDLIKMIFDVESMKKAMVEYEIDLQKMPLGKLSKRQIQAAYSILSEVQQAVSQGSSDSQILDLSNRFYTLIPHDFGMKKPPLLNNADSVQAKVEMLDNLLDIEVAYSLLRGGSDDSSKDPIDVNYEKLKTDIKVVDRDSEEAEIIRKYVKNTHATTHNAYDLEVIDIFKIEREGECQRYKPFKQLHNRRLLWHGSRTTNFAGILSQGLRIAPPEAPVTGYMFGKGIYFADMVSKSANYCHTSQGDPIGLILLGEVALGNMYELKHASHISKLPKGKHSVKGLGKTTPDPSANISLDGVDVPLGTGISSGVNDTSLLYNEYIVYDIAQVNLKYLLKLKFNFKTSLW
# Experimental: 1.1.1. Buffer preparation: PBST: 1× PBS, 0.05% Tween-20; blocking buffer: 1× PBS, 0.05% Tween-20, 5% BSA; reaction buffer: 50 mM Tris-HCl (pH 7.5), 0.005% Tween-20, 0.01% BSA.
# 1.1.2. Coating: A 50 ng/mL Histone coating solution was prepared with 1× PBS and then transferred to a 384-well reaction plate at 25 µL/well. The plate was coated at 4 °C overnight.
# 1.1.3. Washing: After the coating was completed, the coating solution was discarded, and the plate was washed with the PBST solution. The method was as follows: PBST was transferred to the 384-well reaction plate at 50 µL/well, and the plate was left to stand for 5 min. The washing solution was then discarded, and the plate was refilled. The washing step was repeated 3 times. Finally, the reaction plate was patted dry and left for the next step of blocking.
# 1.1.4. Blocking: The blocking buffer was transferred to the 384-well reaction plate at 50 µL/well, and the plate was left to stand for 1 h.
# Washing: After the blocking was completed, the blocking buffer was discarded, and the plate was washed 3 times with the PBST solution according to the method in step 2. Finally, the reaction plate was patted dry.
# 1.1.5. A 1000-fold solution of a compound was prepared and then transferred at 1 µL/well to a 96-well plate containing 199 µL of the reaction buffer. The mixture was well mixed, and then the well mixed compound solution was transferred to the 384-well reaction plate at 5 µL/well. 1.1.6. A 25/10-fold PARP1-DNA solution was prepared with the reaction buffer and then transferred to the 384-well reaction plate at 10 µL/well. For the negative control wells, 10 µL
# of the DNA solution was transferred. The final concentrations of PARP1 and DNA were 0.02 nM and 0.8 nM, respectively.
# 1.1.9. Washing: After the reaction was completed, the reaction solution was discarded, and the plate was washed 3 times with the PBST solution according to the method in step 2. Finally, the reaction plate was patted dry.
# 1.1.10. A primary antibody (anti-Poly/Mono-ADP Ribose Rabbit mAb) was diluted 2000-fold with the blocking buffer and then added at 20 µL/well.
# 1.1.11. Washing: The primary antibody was discarded, and the plate was washed 3 times with the PBST solution according to the method in step 2. Finally, the reaction plate was patted dry.
# 1.1.12. A secondary antibody (anti-rabbit IgG, HRP-linked Antibody) was diluted 2000-fold with the blocking buffer and then added at 20 µL/well.
# 1.1.13. Washing: The secondary antibody was discarded, and the plate was washed 3 times with the PBST solution according to the method in step 2. Finally, the reaction plate was patted dry.
# 1.1.14. Color development: Femto-ECL Substrate A and Femto-ECL Substrate B were mixed at a ratio of 1:1, and the mixture was transferred to the 384-well reaction plate at 25 µL/well. 1.1.15. Reading: The chemiluminescence values (RLU) were measured using Envision.
# [3] = test system: BRCA-mutated MDA-MB-436 cells; assay: Anti-proliferative activity against cells (CCK8): MDA-MB-436; type: cell-based; conditions: Homo sapiens, 72 h + 96 h culture
# [4] = cerebrospinal fluid, read-out: Cerebrospinal fluid
IC50 [1] [nM],IC50 (PARP1) [nM],IC50 [3] [nM],SMILES,"concentration at 0.25 h [2, 4] [ng/g]","concentration at 2 h [2, 4] [ng/g]","concentration at 0.25 h ([2]; plasma, read-out: Plasma) [ng/mL]","concentration at 2 h ([2]; plasma, read-out: Plasma) [ng/mL]"
> 1000,50 to 500,16,"Cc1cc2c([nH]c1=O)CC(CN1CCN(c3ccc(C(=O)NC4CC4)nc3F)CC1)OC2 (centres unmarked) [Example 41, N-Cyclopropyl-6-fluoro-5-(4-((3-methyl-2-oxo-1,5,7,8-tetrahydro-2H-pyrano[4,3-b]pyridin-7-yl)methyl)piperazin-1-yl)picolinamide]",–,–,–,–
> 1000,50 to 500,120,"CCc1cc2c([nH]c1=O)CC(CN1CCC(c3ccc(C(=O)NC)nc3F)CC1)OC2 (centres unmarked) [Example 60, 5-(1-((3-Ethyl-2-oxo-1,5,7,8-tetrahydro-2H-pyrano[4,3-b]pyridin-7-yl)methyl)piperidin-4-yl)-6-fluoro-N-methylpicolinamide]",–,–,–,–
> 1000,≤ 50,4,"CCc1cc2c([nH]c1=O)CC(CN1CCN(c3ccc(C(=O)NC4CC4)nc3)CC1)OC2 (centres unmarked) [Compound 4, N-Cyclopropyl-5-(4-((3-ethyl-2-oxo-1,5,7,8-tetrahydro-2H-pyrano[4,3-b]pyridin-7-yl)methyl)piperazin-1-yl) picolinamide]",–,–,–,–
> 1000,≤ 50,2.8,"CCc1cc2c([nH]c1=O)CC(CN1CCN(c3ccc(C(=O)Nc4cnn(C)c4)nc3F)CC1)OC2 (centres unmarked) [Example 78, 5-(4-((3-Ethyl-2-oxo-1,5,7,8-tetrahydro-2H-pyrano[4,3-b]pyridin-7-yl)methyl)piperazin-1-yl) -6-fluoro-N-(1-methyl-1H-pyrazol-4-yl)picolinamide]",–,–,–,–
> 1000,≤ 50,300,"CCc1cc2c([nH]c1=O)CC(CN1CCN(c3ccc(C(=O)NC)nc3)CC1)OC2 (centres unmarked) [Compound 1, 5-(4-((3-Ethyl-2-oxo-1,5,7,8-tetrahydro-2H-pyrano[4,3-b]pyridin-7-yl)methyl)piperazin-1-yl) -N-methylpicolinamide]",–,–,–,–
> 1000,50 to 500,15,"CNC(=O)c1ccc(N2CCN(CC3Cc4[nH]c(=O)c(C5CC5)cc4CO3)CC2)c(Cl)n1 (centres unmarked) [Example 73, 6-Chloro-5-(4-((3-cyclopropyl-2-oxo-1,5,7,8-tetrahydro-2H-pyrano[4,3-b]pyridin-7-yl)methyl)piperazin-1-yl)-N-methylpicolinamide]",–,–,–,–
> 1000,≤ 50,300,"CCc1cc2c([nH]c1=O)CC(CN1CCN(c3ccc(C(=O)NCC(F)F)nc3F)CC1)OC2 (centres unmarked) [Example 49, N-(2,2-Difluoroethyl)-5-(4-((3-ethyl-2-oxo-1,5,7,8-tetrahydro-2H-pyrano[4,3-b]pyridin-7-yl)methyl)piperazin-1-yl)-6-fluoropicolinamide]",–,–,–,–
> 1000,≤ 50,9.6,"CNC(=O)c1ccc(N2CCN(CC3Cc4[nH]c(=O)c(C)cc4CO3)CC2)c(C#N)n1 (centres unmarked) [Example 76, 6-Cyano-N-methyl-5-(4-((3-methyl-2-oxo-1,5,7,8-tetrahydro-2H-pyrano[4,3-b]pyridin-7-yl)methyl)piperazin-1-yl)picolinamide]",–,–,–,–

# More lines, now with the values behind:
SMILES,IC50 [1] [nM],IC50 (PARP1) [nM],IC50 [3] [nM],"concentration at 0.25 h [2, 4] [ng/g]","concentration at 2 h [2, 4] [ng/g]","concentration at 0.25 h ([2]; plasma, read-out: Plasma) [ng/mL]","concentration at 2 h ([2]; plasma, read-out: Plasma) [ng/mL]"
"[2H]C([2H])([2H])NC(=O)c1ccc(N2CCN(C[C@H]3CCc4nc(C)c(=O)[nH]c4C3)CC2)c(F)n1 [Example 82, (S)-6-Fluoro-N-(methyl-d3)-5-(4-((2-methyl-3-oxo-3,4,5,6,7,8-hexahydroquinoxalin-6-yl)methyl)piperazin-1-yl)picolinamide]",> 1000,–,–,119,0,2740,77
"CNC(=O)c1ccc(C2=CCN(CC3Cc4[nH]c(=O)c(C(F)F)cc4CO3)CC2)c(F)n1 (centres unmarked) [Example 52, 1'-((3-(Difluoromethyl)-2-oxo-1,5,7,8-tetrahydro-2H-pyrano[4,3-b]pyridin-7-yl)methyl)-2-flu oro-N-methyl-1',2',3',6'-tetrahydro-[3,4'-bipyridine]-6-carboxamide]",> 1000,50 to 500,200,–,–,–,–
"CCc1cc2c([nH]c1=O)CC(CN1CC=C(c3ccc(C(=O)NC)nc3)CC1)OC2 (centres unmarked) [Compound 5, 1'-((3-Ethyl-2-oxo-1,5,7,8-tetrahydro-2H-pyrano[4,3-b]pyridin-7-yl)methyl)-N-methyl-1',2',3',6'-tetrahydro-[3,4'-bipyridine]-6-carboxamide]",> 1000,≤ 50,7.5,–,–,–,–
"CNC(=O)c1ccc(C2=CCN(CC3Cc4[nH]c(=O)c(C5CC5)cc4CO3)CC2)c(Cl)n1 (centres unmarked) [Example 69, 2-Chloro-1'-((3-cyclopropyl-2-oxo-1,5,7,8-tetrahydro-2H-pyrano[4,3-b]pyridin-7-yl)methyl)-N-methyl-1',2',3',6'-tetrahydro-[3,4'-bipyridine]-6-carboxamide]",> 1000,50 to 500,180,–,–,–,–
"CNC(=O)c1ccc(C2=CCN(CC3Cc4[nH]c(=O)c(C)cc4CO3)CC2)c(Cl)n1 (centres unmarked) [Example 70, 2-Chloro-N-methyl-1'-((3-methyl-2-oxo-1,5,7,8-tetrahydro-2H-pyrano[4,3-b]pyridin-7-yl)methyl)-1',2',3',6'-tetrahydro-[3,4'-bipyridine]-6-carboxamide]",> 1000,50 to 500,300,–,–,–,–
"CNC(=O)c1ccc(N2CCN(C[C@H]3CCc4nc(C5CC5)c(=O)[nH]c4C3)CC2)cn1 [Example 58, (S)-5-(4-((2-Cyclopropyl-3-oxo-3,4,5,6,7,8-hexahydroquinoxalin-6-yl)methyl)piperazin-1-yl) -N-methylpicolinamide]",> 1000,≤ 50,140,–,–,–,–
"CCc1nc2c([nH]c1=O)C[C@@H](CN1CCC(c3ccc(C(=O)NC)nc3F)CC1)CC2 [Example 54, (S)-5-(1-((2-Ethyl-3-oxo-3,4,5,6,7,8-hexahydroquinoxalin-6-yl)methyl)piperidin-4-yl)-6-fluor o-N-methylpicolinamide]",> 1000,50 to 500,250,–,–,–,–
"C=Cc1cc2c([nH]c1=O)CC(CN1CC=C(c3ccc(C(=O)NC)nc3F)CC1)OC2 (centres unmarked) [Example 68, 2-Fluoro-N-methyl-1'-((2-oxo-3-vinyl-1,5,7,8-tetrahydro-2H-pyrano[4,3-b]pyridin-7-yl)methyl)-1',2',3',6'-tetrahydro-[3,4'-bipyridine]-6-carboxamide]",> 1000,≤ 50,6,–,–,–,–
"[2H]C([2H])([C@H]1CCc2nc(C)c(=O)[nH]c2C1)N1CCN(c2ccc(C(=O)NC3CC3)nc2F)CC1 [Example 88, (S)-N-Cyclopropyl-6-fluoro-5-(4-((2-methyl-3-oxo-3,4,5,6,7,8-hexahydroquinoxalin-6-yl)methyl-d2)piperazin-1-yl)picolinamide]",> 1000,≤ 50,6.5,–,–,–,–
"CNC(=O)c1ccc(C2=CCN(C[C@H]3CCc4nc(C)c(=O)[nH]c4C3)CC2)c(F)n1 [Example 46, (S)-2-Fluoro-N-methyl-1'-((2-methyl-3-oxo-3,4,5,6,7,8-hexahydroquinoxalin-6-yl)methyl)-1', 2',3',6'-tetrahydro-[3,4'-bipyridine]-6-carboxamide]",> 1000,≤ 50,6.7,–,–,–,–

# Source: patent EP4768487A1, “FUSED LACTAM RING COMPOUND AND USE THEREOF” (Chengdu Zenitar Biomedical Technology Co., Ltd., priority 2023, dated 2025)
